Results published in PubChem BioAssay (NCI).
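Briefly, cells in 96-well plates were exposed to five compound concentrations for 48 h, and endpoints were estimated by linear interpolation. At the GI50, growth is halved. The concentration for full growth arrest is given as TGI.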

Columns and labels:
Assay in all cases: NCI-60 cell line screen, 48 h
[1] = test system: 786-0 renal
[2] = test system: A498 renal
[3] = test system: A549 NSCLC
[4] = test system: ACHN renal
[5] = test system: BT-549 breast
[6] = test system: CAKI-1 renal
[7] = test system: CCRF-CEM leukemia
[8] = test system: COLO 205 colon
[9] = test system: DU-145 prostate
[10] = test system: EKVX NSCLC
[11] = test system: HCT-116 colon
[12] = test system: HCT-15 colon
[13] = test system: HL-60(TB) leukemia
[14] = test system: HOP-62 NSCLC
[15] = test system: HOP-92 NSCLC
[16] = test system: HS 578T breast
[17] = test system: HT29 colon
[18] = test system: IGROV1 ovarian
[19] = test system: K-562 leukemia
[20] = test system: KM12 colon
[21] = test system: LOX IMVI melanoma
[22] = test system: M14 melanoma
[23] = test system: MALME-3M melanoma
[24] = test system: MDA-MB-231 breast
[25] = test system: MDA-MB-435
[26] = test system: MOLT-4 leukemia
[27] = test system: NCI-H226 lung
[28] = test system: NCI-H23 lung
[29] = test system: NCI-H460 lung
[30] = test system: NCI-H522 lung
[31] = test system: OVCAR-3 ovarian
[32] = test system: OVCAR-4 ovarian
[33] = test system: OVCAR-8 ovarian
[34] = test system: RPMI-8226 leukemia
[35] = test system: RXF 393 renal
[36] = test system: SF-268 CNS
[37] = test system: SF-295 CNS
[38] = test system: SF-539 CNS
[39] = test system: SK-MEL-2 melanoma
[40] = test system: SK-MEL-28 melanoma
[41] = test system: SK-MEL-5 melanoma
[42] = test system: SK-OV-3 ovarian
[43] = test system: SN12C renal
[44] = test system: SNB-19 CNS
[45] = test system: SNB-75 CNS
[46] = test system: SR leukemia
[47] = test system: SW-620 colon
[48] = test system: T-47D breast
[49] = test system: TK-10 renal
[50] = test system: U251 CNS
[51] = test system: UACC-257 melanoma
[52] = test system: UO-31 renal
[53] = test system: MCF7 breast
[54] = test system: NCI/ADR-RES ovarian
[55] = test system: OVCAR-5 ovarian
[56] = test system: PC-3 prostate
[57] = test system: UACC-62 melanoma
[58] = test system: HCC-2998 colon

## CC1=C(C)C2(O)C(=C(C)C1=O)/C(=C(/O)c1ccccc1)c1nc3ccccc3n12 (configuration not stated)
[1]
  GI50: 29.5 µM
  TGI: 83.9 µM
[2]
  GI50: 23.7 µM
  TGI: 45.4 µM
[3]
  GI50: 19.3 µM
  TGI: 44.4 µM
[4]
  GI50: 16.4 µM
  TGI: 34.4 µM
[5]
  GI50: 22.6 µM
  TGI: 54.8 µM
[6]
  GI50: 17.3 µM
  TGI: 55.9 µM
[7]
  GI50: 12.2 µM
  TGI: 38.5 µM
[8]
  GI50: 17.2 µM
  TGI: 31.3 µM
[9]
  GI50: 26.8 µM
  TGI: 68.6 µM
[10]
  GI50: 24.5 µM
  TGI: 60.4 µM
[11]
  GI50: 29.4 µM
  TGI: 72 µM
[12]
  GI50: 19.3 µM
  TGI: 46.5 µM
[13]
  GI50: 18.3 µM
  TGI: 56.7 µM
[14]
  GI50: 21.9 µM
  TGI: 48.7 µM
[15]
  GI50: 16.1 µM
  TGI: 41.7 µM
[16]
  GI50: 29.3 µM
  TGI: 94.6 µM
[17]
  GI50: 32.5 µM
  TGI: > 100 µM
[18]
  GI50: 12.3 µM
  TGI: 30.4 µM
[19]
  GI50: 24.5 µM
  TGI: 52 µM
[20]
  GI50: 17.6 µM
  TGI: 37.6 µM
[21]
  GI50: 16.7 µM
  TGI: 34.6 µM
[22]
  GI50: 23.5 µM
  TGI: 52.7 µM
[23]
  GI50: 19.1 µM
  TGI: 43.9 µM
[24]
  GI50: 15.4 µM
  TGI: 30 µM
[25]
  GI50: 17.3 µM
  TGI: 35.1 µM
[26]
  GI50: 24.6 µM
  TGI: 72.3 µM
[27]
  GI50: 23.6 µM
  TGI: 58.1 µM
[28]
  GI50: 15 µM
  TGI: 29.9 µM
[29]
  GI50: 18.5 µM
  TGI: 50.8 µM
[30]
  GI50: 19.6 µM
  TGI: 44.2 µM
[31]
  GI50: 12.6 µM
  TGI: 38.6 µM
[32]
  GI50: 13.5 µM
  TGI: 27.1 µM
[33]
  GI50: 18 µM
  TGI: 41 µM
[34]
  GI50: 13.2 µM
  TGI: 33.2 µM
[35]
  GI50: 15.3 µM
  TGI: 34.5 µM
[36]
  GI50: 35.7 µM
  TGI: > 100 µM
[37]
  GI50: 15.5 µM
  TGI: 33.2 µM
[38]
  GI50: 21.7 µM
  TGI: 44.5 µM
[39]
  GI50: 19.4 µM
  TGI: 40 µM
[40]
  GI50: 20.6 µM
  TGI: 49.4 µM
[41]
  GI50: 16.6 µM
  TGI: 31.3 µM
[42]
  GI50: 18.2 µM
  TGI: 42.2 µM
[43]
  GI50: 19.3 µM
  TGI: 34.6 µM
[44]
  GI50: 19.7 µM
  TGI: 46.9 µM
[45]
  GI50: 11.7 µM
  TGI: 32.1 µM
[46]
  GI50: 10.9 µM
  TGI: 37.6 µM
[47]
  GI50: 29.4 µM
  TGI: > 100 µM
[48]
  GI50: 14.5 µM
  TGI: 33.1 µM
[49]
  GI50: 20.1 µM
  TGI: 58.9 µM
[50]
  GI50: 22.1 µM
  TGI: 58.2 µM
[51]
  GI50: 16.5 µM
  TGI: 33.4 µM
[52]
  GI50: 25.6 µM
  TGI: > 100 µM

## O=S(=O)(O)Oc1cc2c(c(OS(=O)(=O)O)c1)C[C@H](OS(=O)(=O)O)[C@@H](c1ccc(OS(=O)(=O)O)c(OS(=O)(=O)O)c1)O2
[3]
  TGI: > 100 µM
[4]
  TGI: > 100 µM
[5]
  TGI: > 100 µM
[8]
  TGI: > 100 µM
[10]
  TGI: > 100 µM
[12]
  TGI: > 100 µM
[14]
  TGI: > 100 µM
[15]
  TGI: > 100 µM
[16]
  TGI: > 100 µM
[17]
  TGI: > 100 µM
[18]
  TGI: > 100 µM
[21]
  TGI: > 100 µM
[22]
  TGI: > 100 µM
[23]
  TGI: > 100 µM
[53]
  TGI: > 100 µM
[24]
  TGI: > 100 µM
[26]
  TGI: > 100 µM
[27]
  TGI: > 100 µM
[29]
  TGI: > 100 µM
[30]
  TGI: > 100 µM
[54]
  TGI: > 100 µM
[31]
  TGI: > 100 µM
[32]
  TGI: > 100 µM
[55]
  TGI: > 100 µM
[33]
  TGI: > 100 µM
[56]
  TGI: > 100 µM
[36]
  TGI: > 100 µM
[37]
  TGI: > 100 µM
[39]
  TGI: > 100 µM
[41]
  TGI: > 100 µM
[42]
  TGI: > 100 µM
[43]
  TGI: > 100 µM
[44]
  TGI: > 100 µM
[45]
  TGI: > 100 µM
[46]
  TGI: > 100 µM
[47]
  TGI: > 100 µM
[48]
  TGI: > 100 µM
[51]
  TGI: > 100 µM
[57]
  TGI: > 100 µM
[52]
  TGI: > 100 µM

## CCN1C[C@]2(COC)[C@H](O)C[C@H](OC)[C@]34C1[C@H]([C@H](OC)[C@H]23)[C@]1(OC(C)=O)[C@H]2[C@@H](OC(=O)c3ccccc3)[C@](O)(C[C@H]24)[C@@H](OC)[C@@H]1O
[1]
  TGI: > 100 µM
[2]
  TGI: > 100 µM
[3]
  TGI: > 100 µM
[4]
  TGI: > 100 µM
[5]
  TGI: > 100 µM
[6]
  TGI: > 100 µM
[7]
  TGI: > 100 µM
[8]
  TGI: > 100 µM
[9]
  TGI: > 100 µM
[10]
  TGI: > 100 µM
[58]
  TGI: > 100 µM
[11]
  TGI: > 100 µM
[12]
  TGI: > 100 µM
[13]
  TGI: > 100 µM
[15]
  TGI: > 100 µM
[16]
  TGI: > 100 µM
[17]
  TGI: > 100 µM
[18]
  TGI: > 100 µM
[19]
  TGI: > 100 µM
[20]
  TGI: > 100 µM
[21]
  TGI: > 100 µM
[22]
  TGI: > 100 µM
[23]
  TGI: > 100 µM
[53]
  TGI: > 100 µM
[24]
  TGI: > 100 µM
[25]
  TGI: > 100 µM
[27]
  TGI: > 100 µM
[28]
  TGI: > 100 µM
[29]
  TGI: > 100 µM
[30]
  TGI: > 100 µM
[54]
  TGI: > 100 µM
[32]
  TGI: > 100 µM
[55]
  TGI: > 100 µM
[33]
  TGI: > 100 µM
[56]
  TGI: > 100 µM
[36]
  TGI: > 100 µM
[37]
  TGI: > 100 µM
[38]
  TGI: > 100 µM
[39]
  TGI: > 100 µM
[40]
  TGI: > 100 µM
[41]
  TGI: > 100 µM
[42]
  TGI: > 100 µM
[43]
  TGI: > 100 µM
[44]
  TGI: > 100 µM
[45]
  TGI: > 100 µM
[46]
  TGI: > 100 µM
[47]
  TGI: > 100 µM
[48]
  TGI: > 100 µM
[49]
  TGI: > 100 µM
[50]
  TGI: > 100 µM
[51]
  TGI: > 100 µM
[57]
  TGI: > 100 µM
[52]
  TGI: > 100 µM
